“Also recorded” adds a separate entry of the source.
What was measured:
Type in all cases: cell-based, human
MRC-5 cells [1] = assay: Protein-bound non-labeled BMAA in hydrolysed cell proteins by triple quadrupole LC/MS/MS; details: BMAA 250-1000 μM with L-serine 250-1000 μM, or CHX
Experimental: After incubation with ^3H-BMAA or cold BMAA, cells were washed three times with PBS, lysed by freeze thawing in Triton-X-100 (0.1%) and cell proteins precipitated in TCA (5%). Protein pellets were washed three times with TCA (5%) and hydrolysed in boiling 6 M HCl at 110° C. for 16 hours as previously described (Mondo, et al., Mar Drugs 10, 509-520 (2012)). Protein pellets were freeze-dried and reconstituted in 20 mM HCl. Particulates were removed by centrifugation through […] membranes and the hydrolysate derivatized in AccQ·Tag (Waters Corporation, Australia). Amino acids were separated on a Waters C-18 column using a method and gradient as described previously (Mondo, et al., Mar Drugs 10, 509-520 (2012)). For recovery of radiolabel in hydrolysed samples, fractions were collected manually every minute for 40 minutes, diluted into 5 ml scintillant (Ultima Gold™ scintillant, Perkin Elmer) and disintegrations per minute (DPM) determined by LSC.
To further confirm that BMAA was present in cell proteins and incorporation was inhibited by L-serine, MRC-5 cells were incubated with a range of concentrations of BMAA (250-1000 μM) or BMAA with L-serine (250-1000 μM) and hydrolysed cell proteins were analyzed by tandem mass spectroscopy on a triple quadrupole LC/MS/MS. […]

MRC-5 cells [2] = assay: Autofluorescence imaging of cells; details: BMAA 300 μM with L-serine 300 μM, 96 hours
Experimental: MRC-5 cells were incubated in DMEM supplemented with 300 μM BMAA in the presence or absence of 300 μM L-serine for 96 hours with daily medium changes. Cellular autofluorescence was visualized using an inverted fluorescent microscope (Olympus IX71) as described previously (Dunlop, et al., Biochem J 410, 131-140 (2008)).

SH-SY5Y cells = assay: Annexin V binding (apoptosis) by flow cytometry; details: 500 μM BMAA, co-incubation with CHX 2 μg/mL or L-serine 50 μM
Experimental: Late-stage apoptosis or necrosis was measured by simultaneous staining with propidium iodide and Annexin V using the BD Pharmingen™ Annexin V—FITC apoptosis detection kit and flow cytometry performed as described previously (Dunlop, et al., Biochem J 435, 207-216 (2010)).

N[C@@H](CO)C(=O)O [L-serine]
effect on incorporation of non-labeled BMAA into cell proteins (MRC-5 cells [1]): inhibited | effect on BMAA-induced formation of autofluorescent bodies (MRC-5 cells [2]): prevented the formation of autofluorescent bodies | effect on BMAA-induced Annexin V binding / apoptosis (SH-SY5Y cells): abrogated; also recorded: significantly reduced
